From paper PMC2477761, “D-glucose Stimulates the Na^+/K^+ Pump in Mouse Pancreatic Islet Cells” (International journal of experimental diabetes research, 2000) come the findings set out here.

In the assay the test system is T1, Na+/K+ ATPase (islet homogenate, ob/ob mice).
T1 construct: gene Atp1a1
The note with it: read-out: apparent K 0.5; 135 mM Na+, 20 mM K+, Mg2+, pH 7.4, 37 C, 10 min; deoxycholate-treated homogenate; 1 mM ouabain difference.

As for `Nc1ncnc2c1ncn2[C@@H]1O[C@H](COP(=O)(O)OP(=O)(O)OP(=O)(O)O)[C@@H](O)[C@H]1O` [ATP], the Km worked out at 500 µM.
